The values that follow come from PubChem BioAssay AID1963843 (Molecular Pharmacology Branch, DTP, NCI, 2024).

Several values for one entry are separate records, joined by “and”; a condition that tells them apart may be missing. Equal entries are not always repeated.

This assay relates to 616215-338-R-J1-PDC complex spheroid viability. The assay can be described thus: Anticancer human tumor 616215-338-R-J1-PDC patient-derived colon adenocarcinoma cell line growth inhibition [POLQ]. Particulars: for viability, T/C: stronger effect = lower value. Here is the method: Multicellular complex tumor spheroid response to Polymerase (POL) inhibitors (novobiocin, ART-558, RP6685) in combination with a variety of drugs and investigational agents in selected tumor cell lines
The POL inhibitors (novobiocin, ART-558, and RP6685) were evaluated both individually and in combination with standard of care and investigational anticancer small molecules within a complex spheroid model of solid tumors. . Complex spheroids include a stromal component modeled by human endothelial cells (HUVEC) and fibroblasts modeled by human mesenchymal stem cells (MSCs). The concentration ranges selected for each drug and investigational agent were based upon clinically achievable concentrations if the clinical Cmax of the agent was known.
Compounds. The drugs and investigational agents: novobiocin (NSC847541), ART-558 (NSC835418), RP-6685 (NSC848927), peposertib (NSC802822), ceralasertib (NSC780249), elimusertib (NSC800525), camonsertib (NSC841442), AZD-1390 (NSC803789), olaparib (NSC753686), talazoparib (NSC767125), rucaparib (NSC756644), sotorasib (NSC818433), MRTX-1133 (NSC836407), SN-38 (NSC673596), topotecan (NSC609699), epotoside (NSC141540), doxorubicin (NSC123127), gemcitabine (NSC613327), 5-fluorouracil (NSC19893), paclitaxel (NSC125973), vemurafenib (NSC761431), MSA-2 (NSC828583), SN-011 (NSC837082), adavosertib (NSC754352), prexasertib (NSC758257), carboplatin (NSC241240) and oxaliplatin (NSC266046), were obtained from the National Cancer Institute (NCI) Developmental Therapeutics Program Chemical Repository (21). The FDA-approved anticancer drug set is available from the Developmental Therapeutics Program at https://dtp.cancer.gov/organization/dscb/obtaining/. […] The stock solutions were prepared in dimethyl sulfoxide (DMSO, Sigma-Aldrich, St. Louis, MO, cat. D2650), except for the platinum compounds which were prepared in saline (Quality Biological, Gaithersburg, MD, cat. 114-055-101), at 800-fold the tested concentration and stored at -70 degrees C prior to their use. All drugs and investigational agents were tested over a range starting from a high concentration at or near the clinical Cmax and decreasing in half-log increments. If the clinical Cmax for an agent had not been determined, the highest concentration tested was 10 microM, except for SN-38, which was tested at a high concentration of 1 microM.
Cell Culture. All cells were maintained in an incubator at 37 degrees C and 5% CO2 with 95% humidity. The PDC lines were cultured according to standard operating procedures established by the NCI PDMR (https://pdmr.cancer.gov). Table 3 of the manuscript, lists the cell lines along with the number of the three cell types plated to form the mct-spheroids and media for tumor cell growth. After thawing, all PDC lines, except 997537-175-T-J1-PDC and 415267-285-R-J2-PDC, were cultured in Matrigel-coated flasks prepared with a working solution of 1X Ham's F-12 nutrient mix, without supplementation (Thermo Fisher Scientific, cat. 11765054), 100 U/mL penicillin-streptomycin (Thermo Fisher Scientific, cat. 15140122), and 2.5% Matrigel (Corning Inc., Corning, NY, cat. 354248) for the first three passages. The two PDC lines 997537-175-T-J1-PDC and 415267-285-R-J2-PDC were cultured on uncoated flasks. The 857933-349-R-J2-PDC line was cultured in 6C/Colon 1B media containing advanced DMEM/F-12 (Thermo Fisher Scientific, cat. 12634028), 10 mM HEPES (Thermo Fisher Scientific, cat. 15630080), 1X GlutaMAX supplement (Thermo Fisher Scientific, cat. 35050061), 0.1 mg/mL primocin (InvivoGen, San Diego, CA, cat. ant-pm-2), 10% defined fetal bovine serum, heat inactivated (HyClone Laboratories Inc., Logan, UT, cat. SH30070.03HI), 50% L-WRN conditioned media (ATCC, cat. CRL-3276), 1.25 mM N-Acetyl-L-cysteine (Sigma-Aldrich, cat. A9165), 10 mM nicotinamide (Sigma-Aldrich, cat. N0636), 1X B-27 supplement (Thermo Fisher Scientific, cat. 17504044), 1X N-2 supplement (Thermo Fisher Scientific, cat. […]
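Also: spheroids exposed to compounds for one week before readout.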
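For viability, T/C in this document: percent viability relative to DMSO vehicle wells taken as 100%.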

Regarding `C#Cc1c(F)ccc2cc(O)cc(-c3ncc4c(N5CC6CCC(C5)N6)nc(OCC56CCCN5CC(F)C6)nc4c3F)c12` (stereo not given), the viability, T/C (commonly the result in the treated group divided by that in the control group, in per cent) reads like this: (compound 0.0316 µM) 101% (2×) and 104%; (compound 0.1 µM) 90.4% and 90.9% and 90.6%; (compound 0.316 µM) 104% and 103% and 97.6%; (compound 1 µM) 107% and 71.8% and 104%; (compound 3.16 µM) 109% and 54.8% and 93.5%; (compound 10 µM) 72.4% and 33.1% and 66.3%. Further, the 50% inhibitory concentration (IC50) (usually the midpoint of a concentration-inhibition curve) (curve of compound) is > 10 µM and 3.54 µM.

With `C=CC(=O)N1CCN(c2nc(=O)n(-c3c(C)ccnc3C(C)C)c3nc(-c4c(O)cccc4F)c(F)cc23)C(C)C1` (stereo not given), the viability, T/C reads like this: (compound 0.0316 µM) 104% and 100% and 91.5%; (compound 0.1 µM) 94.8% and 103% and 100%; (compound 0.316 µM) 97.3% and 99.3% and 98.2%; (compound 1 µM) 97.3% and 97.5% and 99.1%; (compound 3.16 µM) 103% and 90.9% and 104%; (compound 10 µM) 87.7% and 66.7% and 91.4%. The IC50 (curve of compound) is greater than 10 µM.

For the compound `CC1COCCN1c1cc(C2(O)CC3CCC(C2)O3)c2cnn(-c3ccn[nH]3)c2n1` (stereo not given), the viability, T/C is 99.2% and 95.5% and 88% (compound 0.0316 µM); 91.8% and 93% and 73.8% (compound 0.1 µM); 73.3% and 70.1% and 46.3% (compound 0.316 µM); 76.6% and 53.7% and 34.7% (compound 1 µM); 54% and 46% and 21% (compound 3.16 µM); 40.1% and 32.2% and 19.3% (compound 10 µM).

For `CCc1cc2c(N3CCc4c(cc(Cn5ccnc5)cc4-c4cn(C)nc4C(F)(F)F)C3=O)cc(C)nc2c(OC)n1`, the viability, T/C by setting is: (compound 0.0316 µM) 111% and 112% and 115%; (compound 0.1 µM) 99.7% and 102% and 100%; (compound 0.316 µM) 103% and 79.5% and 78.1%; (compound 1 µM) 98.2% and 62.6% and 69.1%; (compound 3.16 µM) 62.3% and 54.4% and 53.4%; (compound 10 µM) 51.3% and 41.3% and 39.7%. Also, for the setting “curve of compound”, the IC50 is > 10 µM and 3.64 µM and 4.13 µM.

Consider `CCc1cc2c(N3CCc4c(cc(Cn5ccnc5)cc4-c4cn(C)nc4C(F)(F)F)C3=O)ccnc2c(OC)n1`, for which the viability, T/C was 93.8% and 107% and 110% (compound 0.0316 µM); 106% and 93.5% and 101% (compound 0.1 µM); 111% and 89.7% and 94.4% (compound 0.316 µM); 107% and 75.4% and 60.1% (compound 1 µM); 79.1% and 52.8% and 53.1% (compound 3.16 µM); 49.8% and 47.7% and 43.4% (compound 10 µM). Also, the IC50 (curve of compound) is > 10 µM and 6.52 µM and 2.81 µM.

Regarding `COc1cc2cc(C(=O)CCC(=O)O)sc2cc1OC`, the viability, T/C runs as follows: (compound 0.0316 µM) 99% and 105% and 100%; (compound 0.1 µM) 97.3% and 102% and 92.3%; (compound 0.316 µM) 109% and 107% and 92.4%; (compound 1 µM) 95.5% and 105% and 98%; (compound 3.16 µM) 105% and 104% and 93.1%; (compound 10 µM) 99.8% and 105% and 109%. Moreover, the IC50 (curve of compound) was greater than 10 µM.

For `O=C(Nc1ccc(O)c(NS(=O)(=O)c2ccc(F)cc2)c1)c1ccc(-c2ccccc2)cc1`, the viability, T/C was 104% and 110% and 106% (compound 0.0316 µM); 107% and 100% and 90.8% (compound 0.1 µM); 107% and 108% and 104% (compound 0.316 µM); 108% and 92.6% and 100% (compound 1 µM); 102% and 106% and 114% (compound 3.16 µM); 60.7% and 49.2% and 101% (compound 10 µM). Besides, the IC50 (curve of compound) was > 10 µM and 9.86 µM.

Consider `CC[C@@]1(O)C(=O)OCc2c1cc1n(c2=O)Cc2cc3c(CN(C)C)c(O)ccc3nc2-1` + COC1C(OC(N)=O)C(O)C(Oc2ccc3c(O)c(NC(=O)c4ccc(O)c(CC=C(C)C)c4)c(=O)oc3c2C)OC1(C)C, for which the IC50 (curve of first compound, second compound 0.0316 µM) was greater than 0.1 µM; the IC50 (curve of first compound, second compound 0.1 µM) is greater than 0.1 µM; the IC50 (curve of first compound, second compound 0.316 µM) was greater than 0.1 µM; the IC50 (curve of first compound, second compound 1 µM) is greater than 0.1 µM; the IC50 (curve of first compound, second compound 3.16 µM) was greater than 0.1 µM; the IC50 (curve of first compound, second compound 10 µM) was greater than 0.1 µM. The viability, T/C (second compound 0.0316 µM, first compound 0.000316 µM) was 99.3%; the viability, T/C (second compound 0.0316 µM, first compound 0.001 µM) is 97.5%; the viability, T/C (second compound 0.0316 µM, first compound 0.00316 µM) was 104%; the viability, T/C (second compound 0.0316 µM, first compound 0.01 µM) is 97.6%; the viability, T/C (second compound 0.0316 µM, first compound 0.0316 µM) is 102%; the viability, T/C (second compound 0.0316 µM, first compound 0.1 µM) was 81.7%. In addition, the viability, T/C reads like this: (second compound 0.1 µM, first compound 0.000316 µM) 99.2%; (second compound 0.1 µM, first compound 0.001 µM) 112%; (second compound 0.1 µM, first compound 0.00316 µM) 99.5%; (second compound 0.1 µM, first compound 0.01 µM) 106%; (second compound 0.1 µM, first compound 0.0316 µM) 106%; (second compound 0.1 µM, first compound 0.1 µM) 78.6%. Also, the viability, T/C (second compound 0.316 µM, first compound 0.000316 µM) was 103%; the viability, T/C (second compound 0.316 µM, first compound 0.001 µM) was 93.5%; the viability, T/C (second compound 0.316 µM, first compound 0.00316 µM) is 95.1%; the viability, T/C (second compound 0.316 µM, first compound 0.01 µM) was 105%; the viability, T/C (second compound 0.316 µM, first compound 0.0316 µM) was 110%; the viability, T/C (second compound 0.316 µM, first compound 0.1 µM) was 90.3%. Also, the viability, T/C by setting is: (second compound 1 µM, first compound 0.000316 µM) 101%; (second compound 1 µM, first compound 0.001 µM) 98.8%; (second compound 1 µM, first compound 0.00316 µM) 98.5%; (second compound 1 µM, first compound 0.01 µM) 101%; (second compound 1 µM, first compound 0.0316 µM) 101%; (second compound 1 µM, first compound 0.1 µM) 75.5%. Also, the viability, T/C is 95.3% (second compound 3.16 µM, first compound 0.000316 µM); 101% (second compound 3.16 µM, first compound 0.001 µM); 99.4% (second compound 3.16 µM, first compound 0.00316 µM); 100% (second compound 3.16 µM, first compound 0.01 µM); 101% (second compound 3.16 µM, first compound 0.0316 µM); 64.9% (second compound 3.16 µM, first compound 0.1 µM). In addition, the viability, T/C reads like this: (second compound 10 µM, first compound 0.000316 µM) 106%; (second compound 10 µM, first compound 0.001 µM) 99.5%; (second compound 10 µM, first compound 0.00316 µM) 96.2%; (second compound 10 µM, first compound 0.01 µM) 100%; (second compound 10 µM, first compound 0.0316 µM) 93.5%; (second compound 10 µM, first compound 0.1 µM) 58.8%.
